Data set [1] is described as follows: Pharmacokinetics test in SD rats (iv and po). It is filed as in vivo. As to conditions: male, SD, rat, in vivo. The protocol:
Example 37: Pharmacokinetics Test
Experimental animals: six healthy adult male SD rats (purchased from Hunan Slack King of Laboratory Animal Co. Ltd.) were divided into two groups, three rats in each group, and the two grops were given intravenous injection and oral administration respectively.
Drug preparation: a quantity of a compound of the present invention was weighed, and 5% DMSO, 10% Kolliphor HS15 and 85% saline (0.9%) were added to give target concentrations of the compound solution.
Administration and sample collection: animals were fasting for 12 h until administered, eating 3 h after the administration. Hind legs of SD rats of one group were given intravenous injection (IV, 1 mg/kg) and SD rats of the other group were given oral administration (PO, 5 mg/kg) respectively. Then blood was collected in the rat tail vein at the time point 0, 0.083, 0.25, 0.5, 1, 2, 4, 6, 8, 24 h respectively, and the blood volume was about 200-400 μL/time points. After the collection of whole blood at each time point, the colleted blood was set in K2EDTA anticoagulant tube, and the tube was placed in the incubator with ice packs. All samples were centrifuged for 5 min at 4° C. at 4600 r/min within 15 min. Plasma was separated and colleted. The concentrations of different compounds in the plasma of the rats after adminstration were measured using LC/MS/MS method, and the pharmacokinetic parameters were calculated according to the curve of the drug concentration-time.
Pharmacokinetic properties of the compounds of the present invention were tested by the experiment above, and the pharmacokinetic parameters were shown in Table 3.

The target in data set [2] is nuclear receptor FXR recombinant protein (Homo sapiens (Human), UniProt Q96RI1). Kind of data set: TR-FRET Farnesoid X Receptor Coactivator Assay. It is filed as biochemical. Particulars: Fluorescein-SRC2-2, Tb anti-GST antibody, 1 h room temperature. The protocol: Example 36: TR-FRET Farnesoid X Receptor Coactivator Assay
Purchasing invitrogen PV4833 kits.
First, the required amount of the compound was weighed and dissolved in 100% DMSO at the maximum concentration of 3000 μM. The solution at the maximum concentration was diluted by 3-fold serial dilution in DMSO to get 10 concentrations;
Second, the above prepared solutions of different concentrations were diluted to 100-fold with a buffer supplied with the kit, followed by mixing and then 10 μL of the diluted solution was added to a 384 well plate;
Third, nuclear receptor FXR recombinant protein was diluted with a buffer to give a concentration of 4×, and 5 μL of the diluent was added to the 384 well plate of second step;
Fourth, Fluorescein-SRC2-2 and Tb anti-GST antibody were diluted with a buffer to give a concentration of 4× respectively. Then two reagents were mixed together, and 10 μL of the mixture was added to the 384 well plate of third step;
Finally, the solution of the 384 well above was mixed uniformly by centrifuging, and then incubated at room temperature for 1 h. Then the TR-FRET Endpoint was used for measuring the solution at wavelengths of 520 nm, 495 nm and 337 nm. EC50 values were calculated according to the measured value of ER=520 nm/495 nm.
In general terms: In TR-FRET formats the signal depends on donor and acceptor labels being close together.

nuclear receptor FXR recombinant protein, sequence (Q96RI1 258-486, other chains not shown): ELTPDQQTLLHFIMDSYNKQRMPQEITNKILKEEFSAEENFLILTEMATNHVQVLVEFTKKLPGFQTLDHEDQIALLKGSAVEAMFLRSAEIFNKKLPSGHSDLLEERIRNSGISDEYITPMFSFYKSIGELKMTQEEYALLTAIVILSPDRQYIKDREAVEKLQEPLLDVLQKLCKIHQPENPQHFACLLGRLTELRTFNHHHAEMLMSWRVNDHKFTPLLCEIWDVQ

Turning to `CC(C)c1cnn(-c2c(Cl)cccc2Cl)c1COc1ccc2c(n1)CCc1ccc(C(=O)O)cc1O2` [Example 17, 2-((1-(2,6-dichlorophenyl)-4-isopropyl-1H-pyrazol-5-yl)methoxy)-10,11-dihydrobenzo[6,7]oxepino[3,2-b]pyridine-7-carboxylic acid], the F in data set [1] worked out at 67.7%. In addition, in data set [1] (iv, 1 mg/kg), the total exposure AUC(0-inf) worked out at 1840 ng·h/mL, the AUC(0-t) amounted to 1840 ng·h/mL, the highest level (Cmax) was 4280 ng/mL and the MRT inf came out at 19.2 min. Further, in data set [1] (iv, 1 mg/kg), the Tmax came to 4.8 min, the Vd was 0.89 L/kg, the clearance amounted to 50 mL/min/kg and the half-life was 25.8 min. Also, in data set [1] (po, 5 mg/kg), the AUC(0-inf) worked out at 6240 ng·h/mL, the AUC(0-t) amounted to 6230 ng·h/mL, the Cmax turned out to be 5960 ng/mL and the MRT inf was found to be 50.4 min. Further, in data set [1] (po, 5 mg/kg), the time to peak (Tmax) came to 19.8 min and the half-life was 47.4 min. The EC50 in data set [2] stood at 23 nM.

As usually defined, the AUC(0-inf) is total exposure, with the tail of the curve extrapolated. A high value points to more exposure. What is called AUC(0-t) is exposure summed from dosing to a finite time, without extrapolation to infinity. In general, Cmax refers to the maximum level reached in the sampled fluid or tissue. A word on the MRT inf: it is a mean duration of stay, worked out from the concentration-time curve. The Tmax is the time from dosing to the highest level. One may read the half-life as the time needed for the level to fall by half in the phase considered. For orientation: EC50 means the midpoint of the concentration-response curve.
